Laboratory results as given in patent US8354447B2, “mGLU receptors antagonists for treating disorders associated with mGLU receptors including addiction and depression” (The Scripps Research Institute, priority 2002, dated 2013).
Where a name gives a salt, the structure may show the parent alone. Read-outs that look alike come from different tables or passages of the source.

Tests used:
[1] = tested on: male Wistar rats; conditions: 5 mg/kg fluoxetine alone (Harrison et al. 2001); cited from earlier work
[2] = tested on: male Wistar rats; test: ICSS thresholds during spontaneous nicotine withdrawal; format: in vivo, rat; conditions: for ICSS reward thresholds: 1 mg/kg, 30 min before the 18 h time-point
Text: (§1) Animals were trained to respond according to a modification of the discrete-trial current-threshold procedure of Kornetsky and Esposito (Fed Proc 38:2473-2476, 1979), which has been described in detail previously (Markou and Koob, 1992 Physiol Behav 51:111-119). Briefly, a trial was initiated by the delivery of a non-contingent electrical stimulus. […] The current intensity delivered was adjusted for each animal and typically ranged from 50 to 200 μA. […] After a variable inter-trial interval (7.5-12.5 sec, average of 10 sec), another trial was initiated with the delivery of a non-contingent electrical stimulus. […] Responding during the inter-trial interval delayed the onset of the next trial by 12.5 sec. Current levels were varied in alternating descending and ascending series. A set of three trials was presented for each current intensity. Current intensities were altered in 5 μA steps. In each testing session, four alternating descending-ascending series were presented. […] The overall threshold of the session was defined as the mean of the thresholds for the four individual series. Each testing session was ˜30 min in duration. The latency between the onset of the non-contingent stimulus and a positive response was recorded as the response latency. The response latency for each test session was defined as the mean response latency of all trials during which a positive response occurred. After establishment of stable ICSS reward thresholds, rats were tested in the ICSS procedure once daily except for the spontaneous nicotine withdrawal experiment when rats were tested at time-points according to the experimental design.
Osmotic mini-pumps were surgically removed from nicotine-treated rats (n=15) (defined as rats having been prepared with mini-pumps delivering 3.16 mg/kg/day nicotine free-base for at least seven days) or corresponding control rats (n=17; rats prepared with vehicle-containing mini-pumps). All rats were then tested in the ICSS procedure at 12, 18, 24, 36, 48 and 72 hr after the removal of osmotic mini-pumps. These time points were chosen based on the time course of threshold elevations previously observed during spontaneous nicotine withdrawal after removal of nicotine-delivering osmotic mini-pumps (Harrison et al., 2001, Neuropsychopharmacology 25:55-71; K.L.). […] Thirty min before being tested at the 18 h time-point, one group of nicotine withdrawing and one group of control rats were injected with LY341495 (1 mg/kg); the remaining rats were injected with vehicle.

[3] = tested on: Wistar rats; test: Nicotine self-administration under a fixed ratio schedule (LY341495, LY341495 and MPEP)
[4] = tested on: male Wistar rats; test: Brain stimulation reward (ICSS) under baseline conditions, paroxetine and p-MPPI; format: in vivo, rat
Experimental: Male Wistar rats (Charles River, Hollister, Calif.) (300-320 g at the start of the experiments) were housed in pairs in a temperature and humidity controlled environment with a 12 hr light/dark cycle. Food and water were available ad libitum. A different set of subjects was used for each experiment. All subjects were treated in accordance with the National Institutes of Health “Guide for the Care and Use of Laboratory Animals,” and the animal facilities and the experimental protocols were in accordance with the Association for the Assessment and Accreditation of Laboratory Animal Care. Most of the behavioral testing was conducted during the light phase of the subjects' light/dark cycle, unless otherwise dictated by the experimental design due to time-course assessment of behavioral parameters. Apparatus The experimental apparatus consisted of 16 Plexiglas chambers (30.5×30×17 cm) (Med Associates Inc., St. Albans, Vt.) encased in sound-attenuating boxes (San Diego Instruments, San Diego, Calif.). Each operant chamber consisted of a stainless steel grid floor and a metal wheel manipulandum located on one wall, which required a 0.2 N force to rotate it a quarter turn. Gold-contact swivel commutators and bipolar leads connected the animals in the stimulation circuit (Plastics One, Roanoke, Va.). Brain stimulation was administered by constant current stimulators (Stimtek 1200, San Diego Instruments, San Diego, Calif.). […] During a 2 sec period immediately following a positive response, further responses were recorded as extra responses but had no consequence. If no response occurred during the 7.5 sec limited hold period a negative response was recorded. […] Thus, during each session, four current-thresholds were recorded and the mean of these values was taken as the current-threshold for each subject for each test session. Response Latency: The latency between the onset of the non-contingent stimulus and a positive response was recorded as the response latency. […]

[5] = tested on: male Wistar rats; test: Reward deficits during amphetamine withdrawal (ICSS thresholds, response latencies, body weight); conditions: for response latencies during withdrawal: 36 hr after the final amphetamine or saline injection; for return to baseline reward threshold levels before the amphetamine-withdrawing non-drug-treated rats: acute treatment prior to the 36 hr test, paroxetine 1.25 mg/kg, p-MPPI 3 mg/kg; for body weight during amphetamine withdrawal: amphetamine-exposed rats; for reward thresholds: saline-exposed animals, paroxetine 1.25 mg/kg or p-MPPI 3 mg/kg
Experimental: Male Wistar rats (Charles River, Hollister, Calif.) (300-320 g at the start of the experiments) were housed in pairs in a temperature and humidity controlled environment with a 12 hr light/dark cycle. Food and water were available ad libitum. A different set of subjects was used for each experiment. All subjects were treated in accordance with the National Institutes of Health “Guide for the Care and Use of Laboratory Animals,” and the animal facilities and the experimental protocols were in accordance with the Association for the Assessment and Accreditation of Laboratory Animal Care. Most of the behavioral testing was conducted during the light phase of the subjects' light/dark cycle, unless otherwise dictated by the experimental design due to time-course assessment of behavioral parameters. Apparatus The experimental apparatus consisted of 16 Plexiglas chambers (30.5×30×17 cm) (Med Associates Inc., St. Albans, Vt.) encased in sound-attenuating boxes (San Diego Instruments, San Diego, Calif.). Each operant chamber consisted of a stainless steel grid floor and a metal wheel manipulandum located on one wall, which required a 0.2 N force to rotate it a quarter turn. Gold-contact swivel commutators and bipolar leads connected the animals in the stimulation circuit (Plastics One, Roanoke, Va.). Brain stimulation was administered by constant current stimulators (Stimtek 1200, San Diego Instruments, San Diego, Calif.). Surgical Procedure The rats were prepared with 11 mm stainless steel bipolar electrodes (Plastics One; diameter=0.25 mm) in the posterior lateral hypothalamus (AP −0.5 mm from bregma; L±1.7 mm; DV −8.3 mm from dura, with the incisor bar set at 5 mm above the interaural line; Pellegrino et al. 1979 under halothane anaesthesia (1-1.5% halothane/oxygen mixture). Subjects were allowed to recover for at least seven days before any behavioral testing. Half of the electrodes were positioned on the right hemisphere and the other half on the left hemisphere to counterbalance possible brain asymmetries. […] The subjects were initially trained to turn the wheel manipulandum on a fixed ratio 1 schedule of reinforcement. […] The current intensity delivered was adjusted for each animal and typically ranged from 100 to 200 μA. After successful familiarization with this procedure (2 sessions of 100 reinforcers in less than 20 minutes), the rats were gradually trained on a discrete-trial, current-threshold procedure. At the start of each trial rats received a non-contingent electrical stimulus. During the following 7.5 sec, the limited hold, if the subjects responded by turning the wheel manipulandum a quarter turn (positive response) they received a second, contingent stimulus identical to the previous non-contingent stimulus. During a 2 sec period immediately following a positive response, further responses were recorded as extra responses but had no consequence. If no response occurred during the 7.5 sec limited hold period a negative response was recorded. […] Stimulation intensities were varied according to the classical psychophysical method of limits. The subjects received four alternating series of ascending and descending current intensities starting with a descending series. Within each series the stimulus intensity was altered by 5 μA steps between each set of trials (three trials per set). After training in the above procedure, rats were tested until stable baseline thresholds had been achieved L+10% over a 5-day period). […] During the ascending series, the reverse situation defined the threshold. Thus, during each session, four current-thresholds were recorded and the mean of these values was taken as the current-threshold for each subject for each test session. Response Latency: The latency between the onset of the non-contingent stimulus and a positive response was recorded as the response latency. The response latency for each test session was defined as the mean response latency of all trials during which a positive response occurred. […]

[6] = Lemberger et al. 1985; Prakash and Foster 1999; cited from earlier work
[7] = tested on: rats; conditions: single high dose 120-300 mg/kg orally, rats (Ryan et al. 2001); cited from earlier work
[8] = tested on: male Wistar rats
Text: as §1
Systemic administration experiments. These experiments investigated whether nicotine withdrawal, as measured by elevations in ICSS thresholds, could be precipitated in nicotine-treated rats by systemic administration of an agonist at mGluII receptors (LY314582), an agonist at GABAB receptors (CGP44532), or antagonists at mGlu5 (MPEP), NMDA (MK-801) or AMPA/Kainate (NBQX) glutamate receptors. For each drug tested, rats were trained in the ICSS paradigm until stable baseline responding was achieved, defined as ≦10% variation in thresholds for 3 consecutive days and requiring approximately 14 days of daily testing. […] One group was then prepared with subcutaneous osmotic mini-pumps delivering vehicle and the second group with mini-pumps delivering 9 mg/kg/day nicotine hydrogen tartrate (3.16 mg/kg/day nicotine free base). There was a minimum seven-day interval after mini-pump implantation, during which ICSS reward thresholds continued to be measured daily, before the effect of any systemically administered drug on reward thresholds was evaluated.

[9] = tested on: male Wistar rats; test: ICSS thresholds after intra-ventral tegmental area LY314582; format: in vivo, rat
Experimental: All injections were administered bilaterally in a volume of 0.5 μl/side given over 66 sec through 17 mm injectors. The injectors were connected to calibrated polyethylene-10 tubing preloaded with drug solution and protruded 3 mm below the ends of the cannulas into the VTA. After infusion, the injectors were kept in place for an additional 60 sec to allow for drug diffusion. Injectors were then removed and replaced with 14 mm wire stylets, and the animals then placed directly into the ICSS testing apparatus. Injections were made using a Harvard microinfusion pump (Model 975).
After stable baseline ICSS responding was achieved (≦10% variation in threshold for 3 consecutive days), rats (n=15) with bilateral cannulas directed toward the VTA were allocated to two groups such that there were no differences in mean baseline reward thresholds or body weight between groups. […] Animals again were tested in the ICSS paradigm each day for seven days prior to drug treatment. […] There was a minimum 48 h interval between each injection, during which ICSS thresholds continued to be measured, to allow thresholds to return to baseline levels before further drug tests. At the conclusion of the experiment, all animals were anaesthetized and their brains removed and immediately placed on ice. The brains were cut in 50 μm sections, and placements of the injectors and the electrodes were examined (see FIG. 1 for histological verification of injection sites). Only those rats with injection tips located within the VTA were included in statistical analyses.

[10] = tested on: drug-naïve rats; conditions: previous studies (Harrison et al., 2002; Macey et al., 2001); cited from earlier work

CNCCC(Oc1ccc(C(F)(F)F)cc1)c1ccccc1 (stereo not drawn) [fluoxetine]
duration of amphetamine withdrawal reward deficits [1]: reduced the duration of the reward deficits

N[C@](CC1c2ccccc2Oc2ccccc21)(C(=O)O)[C@H]1C[C@@H]1C(=O)O [LY341495, 2S-2-amino-2-(1S,2S-2-carboxycyclopropan-1-yl)-3-(xanth-9-yl)propionic acid]
ICSS reward thresholds ([2]; control rats): without affecting thresholds in control rats | ICSS reward thresholds ([2]; nicotine-withdrawing rats, p<0.001): significantly attenuated the elevations in reward thresholds in nicotine-withdrawing rats | ICSS response Latencies ([2]; LY341495 1 mg/kg): had no effect on response latencies at any time-point after injection | nicotine responding ([3]; 0.1, 0.5, 3 and 5 mg/kg LY341495): significantly decreased nicotine responding | decrease of nicotine self-administration ([3]; LY341495 0.5 mg/kg): approximately 35% | nicotine self-administration ([3]; LY341495 0.5 mg/kg alone, p<0.05): significantly decreased nicotine self-administration

Fc1ccc([C@@H]2CCNC[C@H]2COc2ccc3c(c2)OCO3)cc1 [paroxetine, Paroxetine hydrochloride]
brain reward thresholds ([4]; paroxetine 1.25-10 mg/kg, 120 min before test): had no statistically significant effect on thresholds | response latencies during withdrawal [5]: significantly slower than those of either vehicle or p-MPPI treated rats | return to baseline reward threshold levels before the amphetamine-withdrawing non-drug-treated rats [5]: 24 h | body weight during amphetamine withdrawal [5]: did not gain weight during withdrawal | reward thresholds [5]: Neither paroxetine (FIG. 4A & 4D) nor p-MPPI (FIG. 20B and 20E) had an effect on thresholds of saline-exposed animals | half-life [6]: approximately 24 hours | body weight and food consumption [7]: produces a reduction in body weight and food consumption

COc1ccccc1N1CCN(CCN(C(=O)c2ccc(I)cc2)c2ccccn2)CC1.Cl [p-MPPI]
reward thresholds ([4]; p-MPPI 1, 3, 10 mg/kg alone): had no effect on reward thresholds | response latencies ([4]; p-MPPI 1-10 mg/kg (Example 4.2)): had no effect on response latencies | response latencies during withdrawal [5]: had no effect on response latencies | return to baseline reward threshold levels before the amphetamine-withdrawing non-drug-treated rats [5]: 24 h | body weight during amphetamine withdrawal [5]: appeared to gain weight similarly to vehicle-treated rats | reward thresholds [5]: Neither paroxetine (FIG. 4A & 4D) nor p-MPPI (FIG. 20B and 20E) had an effect on thresholds of saline-exposed animals

NC1(C(=O)O)CCC2C(C(=O)O)C21 (racemic) [LY314582, 2-aminobicyclo(3.1.0)hexane-2,6-dicarboxylic acid]
ICSS reward thresholds ([8]; 7.5 mg/kg i.p., nicotine-treated rats, p<0.01): elevated reward thresholds in nicotine-treated rats compared to vehicle treatment | ICSS reward thresholds ([8]; 2.5-7.5 mg/kg intraperitoneal, nicotine-treated and control rats): elevated ICSS reward thresholds in nicotine-treated but not control rats | ICSS response Latencies ([8]; LY314582 2.5-7.5 mg/kg i.p., any dose tested): had no effect on response latencies in nicotine-treated or control rats | ICSS response Latencies ([9]; after VTA administration, nicotine-treated or control rats): had no effect on response latencies | ICSS reward thresholds ([9]; bilateral microinfusion into the VTA, 10-100 ng/side): significantly elevated reward thresholds in nicotine-treated but not control rats | ICSS reward thresholds ([9]; intra-VTA 50 and 100 ng/side): sufficient to elevate reward thresholds in nicotine-treated rats without affecting thresholds in control rats | dose that elevated ICSS thresholds in drug-naïve rats [10]: ≥ 10 mg/kg
